One compound from patent US20060030730A1, “Purification and production methods of 1-aminocyclopropanecarboxylic acid” (Daicel Chemical Industries, Ltd., priority 2004, published 2006) can be followed below.

A short description of the data set: Solubility of 1-aminocyclopropanecarboxylic acid in solvents. The format is physicochemical.

The structures appear in SMILES notation.

Regarding `NC1(C(=O)O)CC1` [1-aminocyclopropanecarboxylic acid], under “solvent methanol”, the solubility in methanol result is recorded as “about 1.0 % (wt/wt)”. Moreover, the “solubility in organic acid having one to five carbon atoms” value (solvent: organic acid having one to five carbon atoms (e.g. acetic acid)) is “highly soluble”.
